Experimental data from PMC12114947, “Evaluation of Violacein Metabolic Stability and Metabolite Identification in Human, Mouse, and Rat Liver Microsomes” (Pharmaceutics, 2025).
Converted amounts (≈) assume the structure as drawn.

Key:
[1] = Identification of violacein metabolites in HLMs by LC-QTOF; format: in vitro ADME, human; settings: all samples after 120 min of reaction, 105 µM violacein, 5 mg/mL protein
Experimental: The metabolism of violacein was investigated using HLMs and RLMs, by incubating the samples for 120 min under four conditions (n = 1): zero sample, phase I-only incubation, phase I and II incubation, and phase II-only incubation, as described by Godoi et al..
For all samples, 25 µL of the 843 µM violacein stock solution was added to propylene tubes and evaporated to dryness under a nitrogen stream. The dried residue was then reconstituted with 2 µL of methanol, ensuring that the final organic solvent concentration remained below 1% to minimize any potential impact on microsomal activity, as described by Jia et al..
To assess phase I metabolism, 148 μL of an NADPH-regenerating system containing 1.1 mM NADP+, 10 mM glucose-6-phosphate, 1 U/mL glucose-6-phosphate dehydrogenase, 5 mM sodium citrate, and 66 mM magnesium chloride in 100 mM phosphate buffer (pH 7.4) were added to the tubes. The solutions were pre-incubated for 5 min at 37 °C and 300 rpm in an MTC 100 thermo shaker incubator, and metabolic reactions were initiated by adding 50 μL of HLMs or RLMs (20 mg/mL), to yield final concentrations of 105 µM violacein and 5 mg of microsomal protein/mL. […]
The acquired chromatograms and mass spectra were analyzed using Insight Explore software version 1.0.0.0 (Shimadzu, Kyoto, Japan). […]

Trichophyton rubrum = tested on: Trichophyton rubrum; design: method as in PMID 26428920; settings: cited from earlier work
Candida albicans = tested on: Candida albicans; design: method as in PMID 26428920; settings: cited from earlier work
HT29 cells = tested on: HT29 cells; design: method as in PMID 16889929; settings: cited from earlier work
[2] = tested on: P. falciparum W2 strain (chloroquine-resistant); design: method as in PMID 29642881, PMID 33689276; settings: cited from earlier work

O=C1NC(c2c[nH]c3ccc(O)cc23)=C/C1=C1\C(=O)Nc2ccccc21 [violacein]
Violacein metabolized [1]: 30% | MIC (Trichophyton rubrum): 2 µg/mL (≈ 5.83 µM) | MIC (Candida albicans): 8 µg/mL (≈ 23.3 µM) | IC50 (HT29 cells): > 10000 nM | IC50 [2]: 500 nM
